Results on 2 compounds are retold here after patent US9375402B2, “Oral formulations of kinase inhibitors” (VERASTEM, INC., priority 2010, dated 2016).

This series in a line: Solubility of SR2516 and SR3406 in selected oils. It is filed as physicochemical. Particulars: shaken overnight at 25 deg C, filtrate, HPLC. How it is done:
This purpose of this study was to select an oil system as the vehicle base for the self-emosifying formulation based on the solubility
Procedure • 1. Add 25 mg of each API in 2 mL eppendoff vial. Record weight. • 2. Weigh out each excipient. Record weight. • 3. Beadbeater 100 sec to mix well. If all dissolved, add additional 5-10 mg each time until excess solid is present. • 4. Use a platform shaker to shake all vials overnight at 25 deg C. • 5. Observe for clarity, presence and relative amount of precipitates. • 6. Filter using spin-X (0.22 um). • 7. Dilute the filtrate to normal concentration for HPLC analysis for drug concentration and purity %. • 8. Keep the filtrate at room temperature and observe for ppt at longer time point(s) if needed. Results Analysis on Filtrate Samples

Regarding `CNC(=O)c1cc(F)ccc1Nc1cc(Nc2ccc(N3CCOCC3)cc2OC)ncc1C(F)(F)F` [SR-3406], the “Solubility” value worked out at 13.6 mg/g (in Capmul MCM (F2)); 4.9 mg/g (in Castor oil (F4)); 1.0 mg/g (in Labrafil M 1944 CS (F3)); 0.3 mg/g (in Miglyol 812 (F1)); 0.4 mg/g (in Oleic acid (F5)).

On to `CNC(=O)c1ccccc1Nc1cc(Nc2ccc(N3CCOCC3)cc2OC)ncc1C(F)(F)F` [SR-2516], for which the “Solubility” value was determined as 8.4 mg/g (in Capmul MCM (F2)); 1.5 mg/g (in Castor oil (F4)); 2.2 mg/g (in Labrafil M 1944 CS (F3)); 0.3 mg/g (in Miglyol 812 (F1)); 5.8 mg/g (in Oleic acid (F5)).
